# Laboratory results from the supplement of paper PMC10307832.
# Tests used:
# Assay in all cases: relative viability (nuclei count vs DMSO), 5 days (fraction); higher = more cells survive
# [1] = compound: Cc1ccc(C(=O)Nc2ccc(CN3CCN(C)CC3)c(C(F)(F)F)c2)cc1C#Cc1cnc2cccnn12 [Ponatinib] + C[C@]1(O)C[C@@H](c2nc(-c3ccc4ccc(-c5ccccc5)nc4c3)c3c(N)nccn32)C1 [Linsitinib] (partner 1 µM)
# In short: (§1)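 Medians of duplicate plates are given as relative viability. That measure is the nuclei count in treated wells divided by the count in vehicle wells. Counts were taken on 4× images of lung cancer cell lines in 1536-well plates, 5 days after pin-tool dosing the day after seeding with one drug alone or a fixed anchor-drug dose plus five library-drug doses (not always all listed) in √10 steps.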
# [2] = compound: Cc1ccc(C(=O)Nc2ccc(CN3CCN(C)CC3)c(C(F)(F)F)c2)cc1C#Cc1cnc2cccnn12 [Ponatinib] + Cc1nc(Nc2ncc(C(=O)Nc3c(C)cccc3Cl)s2)cc(N2CCN(CCO)CC2)n1 [Dasatinib] (partner 0.075 µM)
# In short: as §1
# [3] = compound: Cc1ccc(C(=O)Nc2ccc(CN3CCN(C)CC3)c(C(F)(F)F)c2)cc1C#Cc1cnc2cccnn12 [Ponatinib] + Nc1nc2[nH]cc(CCc3ccc(C(=O)N[C@@H](CCC(=O)O)C(=O)O)cc3)c2c(=O)[nH]1 [Pemetrexed] (partner 0.2 µM)
# In short: as §1
# [4] = compound: Cc1ccc(Nc2nccc(N(C)c3ccc4c(C)n(C)nc4c3)n2)cc1S(N)(=O)=O [Pazopanib] + CS(=O)(=O)CCNCc1ccc(-c2ccc3ncnc(Nc4ccc(OCc5cccc(F)c5)c(Cl)c4)c3c2)o1 [Lapatinib] (partner 2 µM)
# In short: as §1
Cell Line,relative viability ([1]; first compound 0.002 µM),relative viability ([1]; first compound 0.006325 µM),relative viability ([1]; first compound 0.06325 µM),relative viability ([1]; first compound 0.2 µM),relative viability ([2]; first compound 0.002 µM),relative viability ([2]; first compound 0.006325 µM),relative viability ([2]; first compound 0.06325 µM),relative viability ([2]; first compound 0.2 µM),relative viability ([3]; first compound 0.002 µM),relative viability ([3]; first compound 0.006325 µM),relative viability ([3]; first compound 0.06325 µM),relative viability ([3]; first compound 0.2 µM),relative viability ([4]; first compound 0.01 µM),relative viability ([4]; first compound 0.03162 µM),relative viability ([4]; first compound 0.1 µM),relative viability ([4]; first compound 0.3162 µM),relative viability ([4]; first compound 1 µM)
NCI-H322M,0.854,0.897,1.03,0.819,0.263,0.244,0.232,0.253,0.639,0.677,0.655,0.589,0.587,0.645,0.653,0.632,0.618
NCI-H1975,0.876,0.867,0.99,1.01,0.28,0.355,0.318,0.267,0.276,0.293,0.297,0.257,0.798,0.822,0.875,0.873,0.907
NCI-H2170,,,,,0.46,0.591,0.561,0.491,0.238,0.263,0.281,0.331,0.242,0.264,0.293,0.316,0.269
LU99A,0.5,0.501,0.611,0.527,0.498,0.664,0.498,0.462,0.17,0.173,0.186,0.315,0.727,0.978,0.992,1.12,1.07
NCI-H2405,0.98,0.958,0.903,0.712,0.17,0.206,0.187,0.202,0.913,1.06,1.1,1.01,0.922,1.1,1.06,1.31,1.2
NCI-H2009,1.11,1.16,1.11,1.1,0.259,0.292,0.297,0.295,1.05,0.935,0.959,0.934,0.961,0.946,0.796,0.883,0.838
HCC-15,0.923,0.873,0.953,0.815,0.585,0.61,0.828,0.61,0.223,0.217,0.226,0.224,0.841,0.789,0.907,0.89,1
HCC-44,0.657,0.71,0.744,0.683,,,,,0.636,0.653,0.688,0.622,0.999,1.01,0.962,1.01,1.03
COR-L23,0.9,0.826,0.889,0.741,0.526,0.502,0.666,0.433,0.19,0.193,0.189,0.19,0.966,1.07,1.06,1.2,1
HCC-78,0.412,0.519,0.605,0.478,0.33,0.35,0.296,0.382,0.576,0.885,0.865,0.894,0.361,0.658,0.458,0.622,0.924
NCI-H1299,0.915,0.948,0.971,0.951,,,,,,,,,0.928,0.962,0.969,1.02,0.894
NCI-H838,0.939,1.05,1.19,0.858,0.275,0.261,0.305,0.258,0.234,0.249,0.255,0.227,0.961,1.09,0.97,1.02,1.13
LCLC-103H,0.952,1.15,1.15,0.889,0.386,0.573,0.532,0.394,0.446,0.5,0.483,0.416,,,,,
ABC-1,1.07,0.881,0.794,0.973,0.465,0.614,0.539,0.629,,,,,,1.32,1.37,0.91,1.27
NCI-H1650,,,,,0.298,0.346,0.327,0.349,0.345,0.334,0.44,0.36,0.693,0.868,0.718,0.82,0.895
ChaGo-K-1,,,,,0.487,0.567,0.488,0.509,0.264,0.258,0.262,0.246,,,,,
SW 900,,,,,0.682,0.494,0.453,0.48,0.458,0.495,0.457,0.464,,,,,
NCI-H727,0.268,0.328,0.378,0.173,0.322,0.497,0.338,0.565,,,,,0.79,0.988,0.801,0.878,0.891
A549,0.612,0.632,0.688,0.591,,,,,,,,,0.967,0.977,1.07,1.1,0.914
NCI-H2342,,,,,0.285,0.309,0.296,0.296,0.71,0.733,0.726,0.646,,,,,
NCI-H441,0.48,0.576,0.478,0.5,0.72,0.53,0.539,0.406,0.266,0.256,0.297,0.215,,,,,
NCI-H1623,,,,,0.524,0.527,0.55,0.539,,,,,,,,,
NCI-H522,,,,,0.782,0.846,0.703,0.816,0.753,1.15,1.15,1.13,,,,,
IA-LM,0.538,0.512,0.529,0.535,,,,,,,,,0.703,,0.944,0.809,0.52
EBC-1,0.857,0.983,0.985,0.927,,,,,,,,,0.184,0.251,0.232,0.247,0.232
